Publication PMC7048787, “MCL1 binding to the reverse BH3 motif of P18INK4C couples cell survival to cell proliferation” (Cell Death & Disease, 2020)

T1: P18 protein (human P18INK4C residues 1-168), recombinant (human, UniProt P42773 1-168)
T1 construct: Human P18 (P18INK4C, CDKN2C), residues 1-168, called full-length P18 protein in the results; The purification of this protein is not described; only that of His6-MCL1 is; also called CDKN2C; full-length P18 protein; source: E. coli BL21(DE3), recombinant
T1 sequence (looked up): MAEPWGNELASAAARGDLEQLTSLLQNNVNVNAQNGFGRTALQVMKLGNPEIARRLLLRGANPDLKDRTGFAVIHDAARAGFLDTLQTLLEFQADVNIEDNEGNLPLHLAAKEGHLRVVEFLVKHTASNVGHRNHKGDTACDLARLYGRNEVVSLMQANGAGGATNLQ

B1: His6-MCL1 (human MCL1 residues 163-326) (domain or fragment, UniProt Q07820 163-326, looked up)
chain: TPPPAEEEEDELYRQSLEIISRYLREQATGAKDTKPMGRSGATSRKALETLRRVGDGVQRNHETAFQGMLRKLDIKNEDDVKSLSRVMIHVFSDGVTNWGRIVTLISFGAFVAKHLKTINQESCIEPLAESITDVLVRTKRDWLVKQRGWDGFVEFFHVEDLEG
notes: Named His6-MCL1 in the FPA; called rMCL1 in the pull-downs; also called His-MCL1; recombinant MCL1; source: E. coli BL21(DE3), purified (nickel column, gel filtration); not shown: His6, N-terminal, kept

How the values were obtained:
[1] = test system: MCL1 protein in PC3 and WAC2 cells; test: Western blot of MCL1 protein in treated cells; assay type: cell-based, human; conditions: PC3 or WAC2 cells, 4 h, 10 µM LeuP, 30 µM BTZ or 10 µM LeuP + 30 µM BTZ (Fig. 5), BTZ 10, 20 or 30 µM in PC-3 (Fig. S4), N = 3
Method: (§1) Whole-cell lysates were prepared by lysing cells on ice with 1× RIPA buffer (Boston BioProducts): 50 mM Tris-HCl pH 7.4, 150 mM NaCl, 1% NP40, 0.5% sodium deoxycholate and water (rest) supplemented with protease inhibitors (1 mM AEBSF, 0.8 μM aprotinin, 0.05 mM bestatin, 0.015 mM E-64, 0.02 mM leupeptin, 0.01 mM pepstatin A). Protein lysates were resolved by sodium dodecyl sulfate–polyacrylamide gel electrophoresis and transferred to polyvinylidene fluoride membrane in a wet transfer system for 1 h at 100 V. Membranes were incubated with anti-MCL1 Abs (D2W9E and D35A5, Cell Signaling), anti-BAX Abs (D2E11, Cell Signaling), anti-P18 Abs, DCS-118 from Cell Signaling, anti-β-actin Abs, PA1–21167, from Pierce (Rockford, IL, USA), and anti-CDK6 Ab, (C-21): sc-177 from Santa Cruz at a dilution of 1:1000, at 4 °C overnight. HRP-conjugated secondary Abs were used for detection using ECL2 reagent (Pierce). Immunoblots were visualized on Bio-Rad ChemiDoc MP imaging system.
Fig. 5 MCL1 impact on P18 degradation. […] Quantification of band intensity shown below blot. […] The statistical significance was determined by unpaired Student t-test where […].
Figure S4. […] Quantification of band intensity shown below blot. […] The statistical significance was determined by unpaired Student t-test where *P<0.05; **P<0.01; ***P<0.001.

[2] = test system: P18 protein in PC3 and WAC2 cells; test: Western blot of P18 protein in treated cells; assay type: cell-based, human; conditions: for P18 protein level: Western blot, PC3 or WAC2 cells, 4 h, 10 µM LeuP, 30 µM BTZ or 10 µM LeuP + 30 µM BTZ (Fig. 5), BTZ 10, 20 or 30 µM in PC-3 (Fig. S4), N = 3
Method: as §1
Fig. 5 MCL1 impact on P18 degradation. Western blot of DMSO control (0.3%), 10 µM leupeptin (LeuP), 10 µM LeuP + 30µM bortezomib (BTZ), or 30 µM BTZ treated (a) PC3 cells or (b) WAC2 cells for 4 h. Quantification of band intensity shown below blot. All data are presented as mean ± S.D., N = 3. The statistical significance was determined by unpaired Student t-test where […].
Figure S4. Bortezomib inversely impacts MCL1 and P18. Western blot of bortezomib treated PC-3 cells (10, 20, or 30 uM) for 4 hours. Quantification of band intensity shown below blot. All data are presented as mean ± S.D., N=3. The statistical significance was determined by unpaired Student t-test where *P<0.05; **P<0.01; ***P<0.001.

[3] = biological target: T1, P18 protein (human P18INK4C residues …); test: pull-down; in vitro pulldown of recombinant P18, P16, truncated and chimeric proteins (IP) with recombinant MCL1 (IB); conditions: both partners purified

Row | binding result [3] | Molecule | MCL1 protein level [1] | P18 protein level [2] | effect of bortezomib on MCL1-induced loss of P18 protein ([2]; proteasome inhibitor bortezomib, Fig. 5 and Fig. S4)
1 |  | CC(=O)N[C@@H](CC(C)C)C(=O)N[C@@H](CC(C)C)C(=O)N[C@H](C=O)CCCNC(=N)N [leupeptin] | marginal to no impact | marginal to no impact | 
2 |  | CC(C)C[C@H](NC(=O)[C@H](Cc1ccccc1)NC(=O)c1cnccn1)B(O)O [bortezomib] | increase in MCL1 protein | decrease in P18 protein | does not rescue this effect
3 | binds | B1 |  |  | 
